Data published in patent publication US9113629B2, “4-amino-6-(4-substituted-phenyl)-picolinates and 6-amino-2-(4-substituted-phenyl)-pyrimidine-4-carboxylates and their use as herbicides” (DOW AGROSCIENCES LLC, priority 2013, dated 2015).
Like-named read-outs stand apart in the source and are kept apart here.

Experiments:
[1] = system: Key Broadleaf Weed and Crop Species; assay: Post-emergent Test II herbicidal activity (Table 5); assay type: in vivo; settings: post-emergence, 336 h, post-emergent, 14 days after application; for pest or weed control at 70 g/ha: 70 g ai/ha; for pest or weed control at 140 g/ha: 140 g ai/ha
Procedure, shortened: (§1)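 Foliar application at 187 L/ha to greenhouse-grown seedlings (first or second true leaf); subirrigation thereafter. Visual 0–100% injury at 14 d relative to untreated plants.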

[2] = system: Key Grass and Sedge Weeds as well as Grass Crops; assay: Post-emergent Test II herbicidal activity (Table 6); assay type: in vivo; settings: post-emergence, 336 h; for pest or weed control at 70 g/ha: application rate 70 g ai/ha; for pest or weed control at 140 g/ha: application rate 140 g ai/ha
Procedure, shortened: as §1

[3] = ABUTH: velvetleaf (Abutilon theophrasti), read-out: Visual Growth Reduction (%) 14 Days After Application ABUTH
[4] = AMARE: redroot pigweed (Amaranthus retroflexus), read-out: Visual Growth Reduction (%) 14 Days After Application AMARE
[5] = BRSNN: oilseed-rape, canola (Brassica napus), read-out: Visual Growth Reduction (%) 14 Days After Application BRSNN
[6] = CHEAL: lambsquarters (Chenopodium album), read-out: Visual Growth Reduction (%) 14 Days After Application CHEAL
[7] = EPHHL: wild poinsettia (Euphorbia heterophylla), read-out: Visual Growth Reduction (%) 14 Days After Application EPHHL
[8] = HELAN: sunflower (Helianthus annuus), read-out: Visual Growth Reduction (%) 14 Days After Application HELAN
[9] = VIOTR: wild pansy (Viola tricolor), read-out: Visual Growth Reduction (%) 14 Days After Application VIOTR
[10] = Triticum aestivum, TRZSS (wheat), read-out: Visual Growth Reduction (%) 14 Days After Application, TRZSS
[11] = CYPES: yellow nutsedge (Cyperus esculentus), read-out: Visual Growth Reduction (%) 14 Days After Application, CYPES
[12] = DIGSA: crabgrass (Digitaria sanguinalis), read-out: Visual Growth Reduction (%) 14 Days After Application, DIGSA
[13] = ECHCG: barnyardgrass (Echinochloa crus-galli), read-out: Visual Growth Reduction (%) 14 Days After Application, ECHCG
[14] = ORYSA: rice (Oryza sativa), read-out: Visual Growth Reduction (%) 14 Days After Application, ORYSA
[15] = SETFA: giant foxtail (Setaria faberi), read-out: Visual Growth Reduction (%) 14 Days After Application, SETFA
[16] = SORVU: grain sorghum (Sorghum vulgare), read-out: Visual Growth Reduction (%) 14 Days After Application, SORVU
[17] = ZEAMX: maize, corn (Zea mays), read-out: Visual Growth Reduction (%) 14 Days After Application, ZEAMX

C=Cc1c(C(=O)OC)nc(-c2ccc(C(F)(F)F)c(F)c2)c(F)c1N [Compound 12]
pest or weed control at 70 g/ha [1, 3]: 75 to 84%
pest or weed control at 140 g/ha [1, 3]: 85 to 94%
pest or weed control at 70 g/ha [1, 4]: 0 to 29%
pest or weed control at 140 g/ha [1, 4]: 45 to 59%
pest or weed control at 70 g/ha [1, 5]: 0 to 29%
pest or weed control at 140 g/ha [1, 5]: 0 to 29%
pest or weed control at 70 g/ha [1, 6]: 0 to 29%
pest or weed control at 140 g/ha [1, 6]: 0 to 29%
pest or weed control at 70 g/ha [1, 7]: 45 to 59%
pest or weed control at 140 g/ha [1, 7]: 95 to 100%
pest or weed control at 70 g/ha [1, 8]: 0 to 29%
pest or weed control at 140 g/ha [1, 8]: 0 to 29%
pest or weed control at 70 g/ha [1, 9]: 0 to 29%
pest or weed control at 140 g/ha [1, 9]: 0 to 29%
pest or weed control at 70 g/ha [2, 10]: 0 to 29%
pest or weed control at 140 g/ha [2, 10]: 0 to 29%
pest or weed control at 70 g/ha [2, 11]: 30 to 44%
pest or weed control at 140 g/ha [2, 11]: 45 to 59%
pest or weed control at 70 g/ha [2, 12]: 0 to 29%
pest or weed control at 140 g/ha [2, 12]: 0 to 29%
pest or weed control at 70 g/ha [2, 13]: 0 to 29%
pest or weed control at 140 g/ha [2, 13]: 0 to 29%
pest or weed control at 70 g/ha [2, 14]: 0 to 29%
pest or weed control at 140 g/ha [2, 14]: 0 to 29%
pest or weed control at 70 g/ha [2, 15]: 0 to 29%
pest or weed control at 140 g/ha [2, 15]: 0 to 29%
pest or weed control at 70 g/ha [2, 16]: 0 to 29%
pest or weed control at 140 g/ha [2, 16]: 0 to 29%
pest or weed control at 70 g/ha [2, 17]: 0 to 29%
pest or weed control at 140 g/ha [2, 17]: 0 to 29%
melting point: 77 to 78 °C

COC(=O)c1nc(-c2ccc(I)cc2)c(C)c(N)c1Cl [Compound 136, methyl 4-amino-3-chloro-6-(4-iodophenyl)-5-methylpicolinate]
pest or weed control at 70 g/ha [1, 3]: 95 to 100%
pest or weed control at 140 g/ha [1, 3]: 95 to 100%
pest or weed control at 70 g/ha [1, 4]: 85 to 94%
pest or weed control at 140 g/ha [1, 4]: 85 to 94%
pest or weed control at 70 g/ha [1, 5]: 85 to 94%
pest or weed control at 140 g/ha [1, 5]: 85 to 94%
pest or weed control at 70 g/ha [1, 6]: 95 to 100%
pest or weed control at 140 g/ha [1, 6]: 95 to 100%
pest or weed control at 70 g/ha [1, 7]: 0 to 29%
pest or weed control at 140 g/ha [1, 7]: 0 to 29%
pest or weed control at 70 g/ha [1, 8]: 95 to 100%
pest or weed control at 140 g/ha [1, 8]: 95 to 100%
pest or weed control at 70 g/ha [1, 9]: 0 to 29%
pest or weed control at 140 g/ha [1, 9]: 0 to 29%
pest or weed control at 70 g/ha [2, 10]: 45 to 59%
pest or weed control at 140 g/ha [2, 10]: 45 to 59%
pest or weed control at 70 g/ha [2, 11]: 95 to 100%
pest or weed control at 140 g/ha [2, 11]: 95 to 100%
pest or weed control at 70 g/ha [2, 12]: 60 to 74%
pest or weed control at 140 g/ha [2, 12]: 60 to 74%
pest or weed control at 70 g/ha [2, 13]: 0 to 29%
pest or weed control at 140 g/ha [2, 13]: 0 to 29%
pest or weed control at 70 g/ha [2, 14]: 0 to 29%
pest or weed control at 140 g/ha [2, 14]: 0 to 29%
pest or weed control at 70 g/ha [2, 15]: 30 to 44%
pest or weed control at 140 g/ha [2, 15]: 45 to 59%
pest or weed control at 70 g/ha [2, 16]: 60 to 74%
pest or weed control at 140 g/ha [2, 16]: 60 to 74%
pest or weed control at 70 g/ha [2, 17]: 60 to 74%
pest or weed control at 140 g/ha [2, 17]: 75 to 84%
melting point: 115 to 118 °C

Nc1c(Cl)c(C(=O)O)nc(-c2ccc(I)cc2)c1Cl [Compound 173]
pest or weed control at 70 g/ha [1, 3]: 60 to 74%
pest or weed control at 140 g/ha [1, 3]: 85 to 94%
pest or weed control at 70 g/ha [1, 4]: 85 to 94%
pest or weed control at 140 g/ha [1, 4]: 95 to 100%
pest or weed control at 70 g/ha [1, 5]: 85 to 94%
pest or weed control at 140 g/ha [1, 5]: 85 to 94%
pest or weed control at 70 g/ha [1, 6]: 85 to 94%
pest or weed control at 140 g/ha [1, 6]: 85 to 94%
pest or weed control at 70 g/ha [1, 7]: 0 to 29%
pest or weed control at 140 g/ha [1, 7]: 45 to 59%
pest or weed control at 70 g/ha [1, 8]: 95 to 100%
pest or weed control at 140 g/ha [1, 8]: 95 to 100%
pest or weed control at 70 g/ha [1, 9]: 0 to 29%
pest or weed control at 140 g/ha [1, 9]: 0 to 29%
pest or weed control at 70 g/ha [2, 10]: 60 to 74%
pest or weed control at 140 g/ha [2, 10]: 60 to 74%
pest or weed control at 70 g/ha [2, 11]: 95 to 100%
pest or weed control at 140 g/ha [2, 11]: 95 to 100%
pest or weed control at 70 g/ha [2, 12]: 60 to 74%
pest or weed control at 140 g/ha [2, 12]: 75 to 84%
pest or weed control at 70 g/ha [2, 13]: 75 to 84%
pest or weed control at 140 g/ha [2, 13]: 75 to 84%
pest or weed control at 70 g/ha [2, 14]: 0 to 29%
pest or weed control at 140 g/ha [2, 14]: 0 to 29%
pest or weed control at 70 g/ha [2, 15]: 75 to 84%
pest or weed control at 140 g/ha [2, 15]: 85 to 94%
pest or weed control at 70 g/ha [2, 16]: 75 to 84%
pest or weed control at 140 g/ha [2, 16]: 85 to 94%
pest or weed control at 70 g/ha [2, 17]: 60 to 74%
pest or weed control at 140 g/ha [2, 17]: 75 to 84%
melting point: 188.7 to 190.3 °C
